Test results from ChEMBL document CHEMBL1201862, “PubChem BioAssay data set” (2004).
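Protocol summary: plate cells (96-well), add compound at 5 concentrations, incubate 48 h, interpolate endpoints linearly. At the GI50, growth is halved.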 Activity calls are given as the source filed them. No stated cut-off is given here; in the data, active = GI50 up to about 1.1 µM and inactive = higher.

Key:
Assay in all cases: NCI anticancer screen, dose series, 48 h
[1] = system: DMS-273
[2] = system: NCI-H522
[3] = system: OVCAR-5
[4] = system: SF-539
[5] = system: KM12
[6] = system: SNB-19
[7] = system: EKVX
[8] = system: HL-60
[9] = system: IGROV-1
[10] = system: Malme-3M
[11] = system: HCC 2998
[12] = system: LOX IMVI
[13] = system: SF-268
[14] = system: CCRF-CEM
[15] = system: TK-10
[16] = system: K562
[17] = system: ACHN
[18] = system: NCI/ADR-RES
[19] = system: PC-3
[20] = system: BT-549

Measured: GI50

O=C1CC(c2ccccc2)=Nc2ccccc2N1
inactive: [1] > 100 µM | [2] > 100 µM | [3] > 100 µM | [4] > 100 µM | [5] > 100 µM | [6] > 100 µM | [7] > 100 µM | [8] 34.5 µM | [9] > 100 µM | [10] > 100 µM | [11] > 100 µM | [12] 35 µM | [13] > 100 µM | [14] 65 µM | [15] > 100 µM | [16] > 100 µM | [17] > 100 µM

O=C1CC(CC(=O)C2CCCCC2=O)C(=O)N1 (configuration not stated)
inactive: [1] > 100 µM | [2] > 100 µM | [3] > 100 µM | [4] > 100 µM | [5] > 100 µM | [6] > 100 µM | [7] > 100 µM | [8] > 100 µM | [9] > 100 µM | [10] > 100 µM | [11] > 100 µM | [12] > 100 µM | [13] > 100 µM | [14] > 100 µM | [15] > 100 µM | [16] > 100 µM | [17] > 100 µM

COc1ccc(NC(=O)CC(=O)n2nc(-c3ccccc3)c(/N=N/c3ccccc3C)c2-c2ccccc2)cc1
inactive: [1] 16.5 µM | [2] 23.6 µM | [3] > 100 µM | [4] 15.1 µM | [5] 53.3 µM | [6] 25.2 µM | [7] 16.3 µM | [18] 29.6 µM | [8] 54.6 µM | [9] 21.4 µM | [10] 24.3 µM | [11] > 78.7 µM | [12] 41 µM | [13] 17.9 µM | [14] > 61.9 µM | [15] 24.7 µM | [19] 17.1 µM | [16] > 79.8 µM | [17] 26.1 µM

[O-][S+]1CSSC1
inactive: [1] 10.9 µM | [2] 11.4 µM | [3] 16.8 µM | [4] 19.7 µM | [5] 13.9 µM | [6] 41.6 µM | [7] 31.3 µM | [8] 2.56 µM | [9] 22 µM | [10] 36.7 µM | [11] 23.2 µM | [12] 2.2 µM | [13] 26.2 µM | [14] 4.42 µM | [15] 23.7 µM | [16] 3.07 µM | [17] 25.1 µM

CCOC(=O)N1C/C(=C\c2ccccc2)C(=O)/C(=C/c2ccccc2)C1
inactive: [1] 2.34 µM | [2] 2.56 µM | [3] 6.04 µM | [4] 5.08 µM | [5] 2.03 µM | [6] 4.72 µM | [7] 10.6 µM | [20] 2.3 µM | [18] 9.12 µM | [8] 1.24 µM | [9] 5.02 µM | [10] 7.36 µM | [11] 1.94 µM | [12] 1.7 µM | [13] 4.17 µM | [14] 1.51 µM | [15] 8.34 µM | [19] 2.16 µM | [16] 1.44 µM | [17] 3.84 µM

COc1cc2c3cc1Oc1c(OC)c(OC)cc4c1[C@@H](Cc1ccc(O)c(c1)Oc1ccc(cc1)C[C@@H]3N(C)CC2)N(C)CC4.c1ccccc1
inactive: [1] 16.3 µM | [2] 7.55 µM | [3] 30.6 µM | [4] 3.71 µM | [5] 10.9 µM | [6] 20.4 µM | [7] 13.9 µM | [8] 10.2 µM | [9] 20 µM | [10] 17.2 µM | [11] 7.93 µM | [12] 17.1 µM | [13] 23.2 µM | [14] 17.5 µM | [15] 17.8 µM | [16] 8.69 µM | [17] 17.3 µM
